The results in this text go back to patent US7332495B2 (priority 2002, dated 2008).

Data set [1] has as its system rats. The data set is described as follows: Spontaneous withdrawal tests (body weight). Type of data set: in vivo. On the procedure: 96 mice were divided into 4 groups (24 for each group, ? fifty-fifty), and Morphine, IV-12-1, IV-12-2, warm boiled water were administered respectively, using progressive dose increase for 7 days (i.g.) and 2 times per day. The weight of the rats after drug withdrawal was compared with the weight one day before drug withdrawal at a corresponding time (See Table 9 and 10).

Data set [2] concerns rat. As to the kind of experiment: animal or person. To be noted: for responders at 20 mg/kg: ip.
Another data set deals with Kunming mice. The data set is described as follows: Mice writhing model (acetic acid). Type of data set: in vivo. Put shortly: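 Mixed-sex mice received test compound at 20 mg/Kg i.p.; controls received saline p.o. (20 ml/Kg). Thirty minutes later 0.7% acetic acid (10 mg/kg i.p.) was injected, and writhes were counted over 5 minutes. Inhibition ratio was calculated relative to control.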

In data set [3] the test system is rat. The data set is described as follows: Rat tail flick model (focused radiant heat). To be noted: po, read-out: Analgesia ED50. The class given is in vivo.
Data set [4] concerns rats. As to the kind of experiment: Conditional position preference in rats. From the text: A commercially available device for testing (Med Associates Inc.) was used. Measurements were automatically recorded by a computer.
The data are indicated by means of […], t-test was employed to compare the data in different groups. The rats were divided randomly into groups by weight, 12 for each group. They were positive control groups. […] The experiments were divided into stages of accommodation, training and test. Accommodation: Open the doors between black box and grey box and the door between white box and grey box. put the rats in from the grey box; let them run free in the training box for 15 minutes for 4 days. Training: The white box is with medicine while the black one is without it. The period training is 10 days, the first day with the medicine while the second day not; the third day with the medicine while the fourth day not, so on and so forth. When carrying out the training with medicine, 15 minutes after the rat is administrated (i.g.) with medicine, it is put into the white box for 30 minutes. When the training is without medicine, 15 minutes after the rat is administrated (i.g.) with saline, it is put into the black box for 30 minutes. Test: On the 11th day, the rat is put into the training box, with the door open. The time the rat stays in each box, and the number of time it enters during 15 minutes were determined, and the percentage of the time staying in the white box to the time together in white box and black box is calculated (Table 12).

A further data set concerns voltage-gating channel. The data set is described as follows: Electrophysiology of hippocampus's pyramidal cell: voltage-gating channel. Type of data set: cell-based.

Where two headings read alike, the source gives them in different places.

For the molecule `Nc1ccc(CN2CCN(CC(=O)c3ccccc3)CC2)cc1` [IV-12, N^1-(4-aminobenzyl)-N^4-phenacyl piperazine], the “Weight after withdrawal compared with weight one day before withdrawal” value in the data set on rats [1] (IV-12-1 75 mg/kg, 138 h after withdrawal) worked out at 1.08 ± 0.06; with rats [1] (IV-12-2 100 mg/kg, 18 h after withdrawal), 1.01 ± 0.04. Besides, the “Increase (%) of weight” value stood at 3.9% in the data set on rats [1] (IV-12-1 (75 mg/kg), 18 h after withdrawal); 5.3% in the data set on rats [1] (IV-12-1 (75 mg/kg), 36 h after withdrawal); 1.9% in the data set with rats [1] (IV-12-2 (75 mg/kg), 60 h after withdrawal); 7.0% with rats [1] (IV-12-2 (75 mg/kg), 132 h after withdrawal). The “Weight” value with rats [1] (IV-12-1 (75 mg/kg), 60 h after withdrawal) came to 258.5 ± 38 g; in the data set with rats [1] (IV-12-1 (75 mg/kg), 72 h after withdrawal), 251.6 ± 36 g; in the data set on rats [1] (IV-12-2 (75 mg/kg), 114 h after withdrawal) it was 260.1 ± 30 g. Besides, the “Weight after drug withdrawal (in words)” value in the data set on rats [1] (groups IV-12-1 and IV-12-2) is recorded as “did not decrease”. Also, the “Increase (hot plate) (%)” value with rat [2] (20 mg/kg, Table 5 summary) is listed as 100%. Besides, the responders at 20 mg/kg with rat [2] (Rattus norvegicus, read-out: Analgesic ratio (Increase by 100%)) was 100%; in the data set with rat [2] (Rattus norvegicus, read-out: Analgesic ratio (More than 60 seconds)), 80%. The ED50 in the data set with rat [2] (Rattus norvegicus, po, read-out: Analgesia ED50) was 52.4 mg/kg; in the data set with Kunming mice (Mus musculus, po, Mice, Acetic acid Writhing, read-out: Analgesia ED50), 13.2 mg/kg; with rat [3], 162 mg/kg. Also, the “Writhing (K i)” value in the data set with Kunming mice (20 mg/kg, Table 5 summary) stood at 100. Moreover, the inhibition in vivo at 20 mg/kg in the data set with Kunming mice (Mus musculus, ip, i.p. 20 mg/Kg, acetic acid 0.7% i.p. after 30 minutes, writhes in 5 minutes, read-out: Analgesia (inhibition ratio of writhing)) was 100%. Moreover, the “Percent in the medicine box (%)” value with rats [4] (10 mg/kg i.g.) is 46.1 ± 16.3%; with rats [4] (20 mg/kg i.g.) it was 51.9 ± 9.8%; with rats [4] (50 mg/kg i.g.) it was 62.9 ± 5.4 %. Also, the “Effect on voltage-gating channel” value with voltage-gating channel is recorded as “did not affect”.
